Experimental data from US20250282774A1, “FUSED RING COMPOUND” (SHANGHAI SHIJIANG BIOTECHNOLOGY CO., LTD., priority 2022, published 2025).

Assays:
[1] = system: mPTP-active Daoy cell; experiment: Cell viability (Promega CellTiter-Glo), mPTP-active Daoy cell; assay type: cell-based; details: Homo sapiens, Daoy cell transfected with empty virus vector
[2] = system: mPTP-inactive Daoy cell; experiment: Cell viability (Promega CellTiter-Glo), mPTP-inactive Daoy cell; assay type: cell-based; details: Homo sapiens, Daoy cell transfected with PPIF shRNA vector
[3] = system: Con-NCI-H82 cell; experiment: Cell viability (Promega CellTiter-Glo), Con-NCI-H82 cell; assay type: cell-based; details: Homo sapiens, NCI-H82 cell transfected with empty virus vector
Description: (§1) The expression of NNMT protein in NCI-H82 cell was overexpressed by inserting the NNMT gene into NCI-H82 cell using a viral vector, and the NNMT protein-overexpressing NCI-H82 cell (ov-NNMT NCI-H82 cell) was obtained. The expression of DNMT1 in NCI-H82 cell was knocked down by transfecting shRNA (the nucleotide sequence of shRNA was […] (SEQ ID No: 3)) using a viral vector, and the NCI-H82 cell with low expression of DNMT1 protein (sh-DNMT1 NCI-H82 cell) was obtained. The control NCI-H82 cell (Con-NCI-H82 cell) was obtained by transfecting NCI-H82 cell with empty virus vector without carrying NNMT gene and shRNA. The expressing content of NNMT protein and DNMT1 protein in the Con-NCI-H82 cell, the expressing content of NNMT protein in the ov-NNMT NCI-H82 cell, and the expressing content of DNMT1 protein in the sh-DNMT1 NCI-H82 cell were detected using Western Blot assay (as shown in FIG. 3 and FIG. 4), it could be seen from FIG. 3 and FIG. 4 that the NNMT protein was overexpressed in the ov-NNMT NCI-H82 cell and the expression of DNMT1 protein was knocked down (i.e, low expression) in the sh-DNMT1 NCI-H82 cell compared with the expression level of NNMT protein and DNMT1 protein in the Con-NCI-H82 cell.

[4] = system: ov-NNMT NCI-H82 cell; experiment: Cell viability (Promega CellTiter-Glo), ov-NNMT NCI-H82 cell; assay type: cell-based; details: Homo sapiens, NCI-H82 cell overexpressing NNMT protein
Description: as §1

[5] = system: sh-DNMT1 NCI-H82 cell; experiment: Cell viability (Promega CellTiter-Glo), sh-DNMT1 NCI-H82 cell; assay type: cell-based; details: Homo sapiens, NCI-H82 cell with DNMT1 knocked down
Description: as §1

[6] = system: Daoy cell; experiment: Mitochondria membrane potential difference by TMRM in Daoy cell (mPTP activity); assay type: cell-based, human; details: H2O2 +, CsA −
Description: For cells with active mitochondria permeability transition pore, adding peroxide (such as H2O2) could increase the activity of mitochondria permeability transition pore, resulting in a decrease in mitochondria membrane potential.

[7] = system: Daoy cell transfected with empty virus vector without carrying shRNA; experiment: Mitochondria membrane potential difference by TMRM in Daoy cell transfected with empty virus vector (Con shRNA); assay type: cell-based, human; details: H2O2 +, CsA −
[8] = system: Daoy cell transfected with virus vector carrying shRNA that could specifically induce the degradation of PPIF mRNA; experiment: Mitochondria membrane potential difference by TMRM in Daoy cell transfected with PPIF shRNA; assay type: cell-based, human; details: H2O2 +, CsA −

Row | SMILES | IC50 [1] [nM] | IC50 [2] [nM] | IC50 [3] [µM] | IC50 [4] [µM] | IC50 [5] [µM] | Relative TMRM signal intensity (%) in Daoy cell after different treatments, mean value [6] [%] | Relative TMRM signal intensity (%), mean value [7] [%] | Relative TMRM signal intensity (%), mean value [8] [%]
1 | COc1ccc2cc3[n+](cc2c1N1CCCC(C)C1)CCc1cc2c(cc1-3)OCO2 (stereo not drawn) [Compound AB35530] | 2430 | 550 | 0.32 | 0.72 | 1.76 |  |  | 
2 | COc1ccc2cc3[n+](cc2c1N1CCC(F)(F)CC1)CCc1cc2c(cc1-3)OCO2 [Compound AB35556] | 7310 | 3140 | 2.57 | 5.85 | 9.86 |  |  | 
3 | COc1ccc2cc3[n+](cc2c1N1CCC(Cl)CC1)CCc1cc2c(cc1-3)OCO2 [Compound SJ0004] | 7450 | 2410 | 0.74 | 1.94 | 2.96 |  |  | 
4 | OO [Compound H2O2, H2O2] |  |  |  |  |  | 82 | 79 | 95
5 | COc1ccc2cc3[n+](cc2c1N1CCC(Cl)CC1)CCc1cc2c(cc1-3)OCCO2 [Compound SJ0012] | 6960 | 2080 | 0.97 | 2.35 | 3.88 |  |  | 
6 | COc1ccc2cc3[n+](cc2c1N1CCC(C(F)(F)F)CC1)CCc1cc2c(cc1-3)OCO2 [Compound SJ0002] | 5130 | 1560 | 0.32 | 0.88 | 2.03 |  |  | 
7 | COc1ccc2cc3[n+](cc2c1N1CCC(F)CC1)CCc1cc2c(cc1-3)OCO2 [Compound AB35551] | 5820 | 1970 | 1.57 | 3.48 | 5.96 |  |  | 
8 | COc1ccc2cc3[n+](cc2c1N1CCC(C)CC1)CCc1cc2c(cc1-3)OCCO2 [Compound SJ0009] | 2060 | 470 | 0.18 | 0.55 | 1.33 |  |  | 
9 | COc1ccc2cc3[n+](cc2c1N1CCOC(C)C1)CCc1cc2c(cc1-3)OCO2 (stereo not drawn) [Compound AB35540] | 15600 | 5850 | 5.05 | 10.4 | 19 |  |  | 
10 | COc1ccc2cc3[n+](cc2c1N1CCCCC1C)CCc1cc2c(cc1-3)OCO2 (stereo not drawn) [Compound AB35528] | 1490 | 420 | 0.27 | 0.68 | 1.48 |  |  | 
11 | COc1ccc2cc3[n+](cc2c1N1CCCC1)CCc1cc2c(cc1-3)OCO2 [Compound AB35555] | 1580 | 450 | 0.37 | 1.02 | 2.19 |  |  | 
12 | COc1ccc2cc3[n+](cc2c1N1CCCCC1)CCc1cc2c(cc1-3)OCO2 [Compound AB36492] | 1650 | 460 | 0.21 | 0.68 | 1.46 |  |  | 
13 | COc1ccc2cc3[n+](cc2c1N1CCCCCC1)CCc1cc2c(cc1-3)OCO2 [Compound AB36413] | 1260 | 320 | 0.29 | 0.85 | 1.58 |  |  | 
14 | COc1ccc2cc3[n+](cc2c1N1CCC(C(F)(F)F)CC1)CCc1cc2c(cc1-3)OCCO2 [Compound SJ0010] | 6330 | 2090 | 0.45 | 0.89 | 2.54 |  |  | 
15 | COc1ccc2cc3[n+](cc2c1N1CCC(C)CC1)CCc1cc2c(cc1-3)OCO2 [Compound SJ0001] | 1350 | 520 | 0.14 | 0.58 | 1.12 |  |  | 
16 | COc1ccc2cc3[n+](cc2c1N1CCC2(CCO2)CC1)CCc1cc2c(cc1-3)OCO2 [Compound AB35575] | 26700 | 5850 | 4.07 | 8.96 | 14.8 |  |  | 
